According to patent US8703438B2, “Ligand binding stabilization method for drug target identification” (The Regents of the University of California, priority 2008, dated 2014):

Assays:
TAP-tagged Tif1 (eIF4A) = target: T1, TAP-tagged Tif1 (eIF4A) (Saccharomyces cerevisiae, UniProt P10081); test: DARTS western blot with TAP-tagged eIF4A yeast strain; format: binding; settings: FIG. 10
T1 construct: endogenous in cells; host or cells: TAP-tagged eIF4A yeast strain (Ghaemmaghami et al. 2003 collection)
T1 sequence (P10081 1-395): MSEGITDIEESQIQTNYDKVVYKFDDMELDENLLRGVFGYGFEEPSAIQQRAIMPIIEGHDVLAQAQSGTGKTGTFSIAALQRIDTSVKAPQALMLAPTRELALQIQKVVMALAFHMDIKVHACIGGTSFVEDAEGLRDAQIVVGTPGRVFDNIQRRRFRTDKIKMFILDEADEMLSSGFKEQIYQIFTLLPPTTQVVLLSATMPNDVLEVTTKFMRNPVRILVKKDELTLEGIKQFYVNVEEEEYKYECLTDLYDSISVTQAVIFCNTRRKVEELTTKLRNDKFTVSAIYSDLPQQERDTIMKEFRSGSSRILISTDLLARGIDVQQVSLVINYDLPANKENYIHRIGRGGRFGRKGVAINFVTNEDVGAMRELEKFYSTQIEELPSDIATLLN
Text: (§1) FIG. 4A: Chemical structure of resveratrol. FIG. 4B: Yeast cell lysates and human HeLa cell lysates were each treated with resveratrol in vitro followed by thermolysin digestion and silver staining. Protected bands of similar size were detected. FIG. 4C: Resveratrol protects TAP-tagged eIF4A, but not an unrelated Htb2, protein from proteolysis. Arrow: protein protected from subtilisin proteolysis (H. sapiens (SEQ ID NO:1), M. musculus (SEQ ID NO:2), X. laevis (SEQ ID NO:3), D. melanogaster (SEQ ID NO:4), C. elegans (SEQ ID NO:5), S. purpuratus (SEQ ID NO:6), C. reinhardtii (SEQ ID NO:7), A. thaliana (SEQ ID NO:8), H. andersenii (SEQ ID NO:9), S. cerevisiae (SEQ ID NO:10)). FIG. 4D: Resveratrol inhibits eIF4A-dependent translation in HEK 293 cells as assayed by bicistronic translation reporters. […] FIG. 4E: eIF4A is required for longevity in resveratrol-treated animals. Resveratrol (50 μM) lengthens the lifespan of wild-type N2 worms fed control (gfp) RNAi (green), but not worms fed eIF4A (inf-1) RNAi (red) or daf-16 RNAi (blue). gfp(RNAi), mVeh=19 (n=74), mRSV=20 (n=78), P=0.0006***; inf-1(RNAi), mVeh=26 (n=76), mRSV=24 (n=79), P=0.4687; daf-16(RNAi), mVeh=17 (n=78), mRSV=17 (n=76), P=0.3305. m, mean lifespan (days of adulthood); n, number of animals tested.
Arrow: protein protected from proteolysis. […]

Tif1 A64Q point mutant = Tif1 A64Q point mutant (Saccharomyces cerevisiae, UniProt P10081, A64Q); test: DARTS target mutation analysis; format: binding, yeast; settings: FIG. 4C
Chain of Tif1 A64Q point mutant (P10081 whole entry A64Q): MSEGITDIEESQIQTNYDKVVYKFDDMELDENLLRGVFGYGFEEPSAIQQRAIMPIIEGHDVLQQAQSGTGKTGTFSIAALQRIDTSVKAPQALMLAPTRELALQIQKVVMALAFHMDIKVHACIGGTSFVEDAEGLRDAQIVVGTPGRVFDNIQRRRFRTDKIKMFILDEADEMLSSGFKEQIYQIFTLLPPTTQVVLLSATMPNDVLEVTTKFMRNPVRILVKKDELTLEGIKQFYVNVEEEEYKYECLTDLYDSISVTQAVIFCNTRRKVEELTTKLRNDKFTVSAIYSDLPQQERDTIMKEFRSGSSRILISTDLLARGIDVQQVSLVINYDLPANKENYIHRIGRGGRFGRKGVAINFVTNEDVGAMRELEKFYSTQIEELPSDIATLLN
Text: This enrichment was confirmed by western blotting using the TAP-tagged (Ghaemmaghami et al. (2003) Nature 425: 737-741) eIF4A yeast strain (FIG. 10). […] While the alanine is conserved throughout fungi and animals, plants have a glutamine at this position and the bulkier side chain is hypothesized to protect plant eIF4A from resveratrol inhibition by minimizing self binding.

[1] = test system: eIF4A-dependent translation in HEK 293 cells; test: In vivo translation assay with bicistronic dual-luciferase reporters; format: cell-based, human; settings: HEK293, Dual-Glo
Text: as §1
The molecular mechanisms underlying resveratrol's lifespan effect have been controversial (Howitz et al. (2003) Nature 425: 191-196; Kaeberlein et al. (2005) J Biol Chem 280: 17038-17045), and whether Sir2 serves as a direct target for resveratrol is an interesting problem that is being pursued. […]
HEK293 cells in DMEM+10% FBS were pre-treated with 50 μM resveratrol for 1 hr, and transfected with bicistronic translation reporter plasmids using LipoD293 DNA in vitro transfection reagent (SignaGen). […] Reporter activity was measured 33 hr post-transfection using the Dual-Glo luciferase assay system (Promega) with an Analyst HT plate reader (Molecular Devices). […]

SMILES: Oc1ccc(C=Cc2cc(O)cc(O)c2)cc1 [resveratrol]
- protection of TAP-tagged Tif1 from proteolysis (TAP-tagged Tif1 (eIF4A)): protects the TAP-tagged Tif1
- effect of Tif1 A64Q point mutation on resveratrol protection (Tif1 A64Q point mutant): confers resistance to resveratrol
- translation from the eIF4A-independent HCV IRES [1]: unaffected
- EMCV IRES-mediated translation ([1]; requires eIF4A): inhibited in a dose-dependent manner
- cap-dependent translation ([1]; requires eIF4A): inhibited in a dose-dependent manner
